# Source: ChEMBL document CHEMBL3392922, “MMV box screening in the Dd2 P. falciparum strain”
# Test system: Plasmodium falciparum
# Assay: MMV: IC50 determined against P. falciparum Dd2-luc strain using a Malaria Sybr Green I Fluorescence assay. Starting conditions were 1% trophozoite synchronised parasites at 2% haematocrit. Fluorescence detection completed after 48hr incubation at 37 degrees C under 1% O2, 3% CO2 and balance N2.
# Format: functional, organism-based
# Settings: Dd2, 48 h
row,SMILES,IC50 [nM]
1,CCN1CCCC1CNc1[nH]cnc2c3cc(Cl)ccc3nc1-2 (stereo not drawn),1450
2,CCOc1cc(CNC(C)C(O)c2ccccc2)cc(Cl)c1OCC (stereo not drawn),1910
3,Nc1nc(Nc2cccc(F)c2)nc2ccccc12,2370
4,CCOc1c(Cl)cc(CNCC(O)c2ccccc2)cc1OC (stereo not drawn),1300
5,COc1ccc2nc(C)cc(Nc3ccccc3O)c2c1,1100
6,Cc1cc(C)cc(Nc2cc(C)nc3nc(C(F)(F)F)nn23)c1,137
7,CCn1nc(-c2ccc(C(=O)OC)cc2)nc2c(=O)n(C)c(=O)nc1-2,691
8,CCOc1ccccc1CN1CCc2nc3cc(C(C)(C)C)nn3c(O)c2C1,1220
9,O=C(NC1CCN(Cc2ccccc2)CC1)c1cc2nc(-c3ccc(Cl)s3)cc(C(F)(F)F)n2n1,5170
10,Cc1sc(NC(=O)c2ccco2)c(C(c2cccnc2)N2CCC(Cc3ccccc3)CC2)c1C (stereo not drawn),1340
11,Cc1cc(N2CCCC2)nc(Nc2ccc(NC(=O)CCc3ccccc3)cc2)n1,1260
12,O=C(NCC(c1ccsc1)N1CCCCCC1)c1ccc(C(F)(F)F)cc1 (stereo not drawn),467
13,Cc1cc(NC(=O)c2cccc(C(F)(F)F)c2)n(-c2nc(-c3ccc4c(c3)OCO4)cs2)n1,2180
14,O=C(CCc1ccccc1)c1ccccc1OCC(O)CN1CCCCC1 (stereo not drawn),1090
15,CCCCCC(=O)N1c2ccccc2N=C2CC(c3ccc(OC)c(OC)c3)CC(O)=C2C1c1ccc(C(F)(F)F)cc1 (stereo not drawn),179
16,Cc1cc(Nc2ccc3ccccc3c2)n2ncnc2n1,156
17,COc1ccc(-n2ccnc2SCC(=O)Nc2cc(C)ccc2C)c(OC)c1,351
18,CCN1CCN(Cc2ccc(NC(=O)c3cc4ccc5cccnc5c4[nH]3)cc2)CC1,665
19,COc1cccc(Nc2nc(NCCO)c3ccccc3n2)c1,885
20,COc1ccc(C(=O)Nc2ccc3nc(N4CCCCC4)cc(C)c3c2)cc1OC,614
21,COCCNCC(O)Cn1c2ccc(Cl)cc2c2cc(Cl)ccc21 (stereo not drawn),652

row,SMILES,IC50 [nM]
1,COc1ccc(N2CCN(C(CNC(=O)C3CCCCC3)c3ccc4c(c3)OCO4)CC2)cc1 (stereo not drawn),569
2,O=C(NC1CCN(Cc2ccccc2)CC1)c1cc(-c2ccncc2)nc2ccc(Cl)cc12,1480
3,COc1cccc(Nc2nc(N)c3ccccc3n2)c1,3110
4,CCC(O)c1ccc(Br)cc1NC(=O)c1cccc(Cl)c1 (stereo not drawn),701
5,CN(C)CCCNCc1ccc(-c2ccc(F)c(Cl)c2)o1,1160
6,Cn1c(=O)c2cc(C(=O)NCCCN3CCCCCC3)sc2c2ccccc21,366
7,Cc1[nH]c(-c2ccc(F)cc2)cc1C(=O)NC1CCN(Cc2ccccc2)CC1,1670
8,Cc1sc2ncnc(Sc3nc4ccccc4[nH]3)c2c1C,844
9,CCOc1cc2c(cc1OCC)C(c1cc(OC)c(O)cc1Cl)NCC2 (stereo not drawn),120
10,CC1CN(C(=O)c2sc3ccccc3c2Cl)CC(C)O1 (stereo not drawn),104
11,CCC(=O)Nc1nnc(Cc2ccc(OC)c(OC)c2)s1,704
12,Oc1ccccc1CN1CCN(C(c2ccccc2)c2ccccc2)CC1,959
13,c1ccc2c(NCCCCCCNc3c4c(nc5ccccc35)CCCC4)c3c(nc2c1)CCCC3,545
14,CCC1(C)CC(CCNCc2ccccc2O)(c2ccc(C)cc2)CCO1 (stereo not drawn),141
15,OC(CNC1CCCCC1)Cn1c2ccccc2c2ccccc21 (stereo not drawn),278
16,O=C(NCCCN1CCC(N2CCCCC2)CC1)C1=Cc2cc(Br)ccc2OC1,965
17,O=C(NC1CCN(Cc2ccccc2)CC1)c1cc(C(=O)NC2CCN(Cc3ccccc3)CC2)cc(C(=O)NC2CCN(Cc3ccccc3)CC2)c1,264
18,CCN1CCN(c2cc(C)c3cc(NC(=O)c4ccc(OC)c(OC)c4)ccc3n2)CC1,1850
19,Fc1ccc2[nH]c3c(NCCCN4CCOCC4)ncnc3c2c1,335
20,CC(=O)Nc1nnc(SCc2c(C)cc(C(C)(C)C)cc2C)s1,794
21,Cc1ccc(Cl)cc1N1CCN(CCCNC(=O)C2CCN(c3nc4ccccc4[nH]3)CC2)CC1,1300

row,SMILES,IC50 [nM]
1,O=C(Nc1ccc(CN2CCOCC2)cc1)c1ccc(-c2cc(Cl)ccc2Cl)o1,1740
2,CCOc1ccc(C2N(C)c3ccccc3N2C)cc1,904
3,Cc1cccc(Nc2nc(N)c3ccccc3n2)c1,3500
4,COc1cccc(C(=O)Nc2ccc(-c3nc4ccccc4[nH]3)cc2)c1,832
5,CCn1c(CN2CCN(Cc3ccccc3)CC2)nc2cc(NC(=O)c3cccs3)ccc21,468
6,O=C(NC1CCN(Cc2ccccc2)CC1)c1cc(-c2cccnc2)nc2ccc(Cl)cc12,1220
7,CCN(Cc1ccccc1)C1CCN(Cc2cc(Br)ccc2O)CC1,603
8,Nc1ccc(-c2nc3cc(Oc4ccc(Oc5ccc6[nH]c(-c7ccc(N)cc7)nc6c5)cc4)ccc3[nH]2)cc1,315
9,Cc1ccc(C)c(Cn2c(N3CCC(C(=O)NCc4cccs4)CC3)nc3ccccc32)c1,1160
10,CCOc1cccc(C(=O)Nc2ccc(-c3nc4ccccc4[nH]3)cc2)c1,1210
11,Cc1cc(N(C)C)nc(Nc2ccc(NC(=O)Nc3ccccc3)cc2)n1,973
12,Clc1cc(Br)ccc1-c1ccc(CNCC2CCNCC2)o1,596
13,COc1ccc(C2C(C(=O)Nc3cccc(OC)c3)c3ccccc3C(=O)N2C2CCCCC2)cc1 (stereo not drawn),2340
14,CCN(CC)c1ccc(NC(=O)c2cccs2)cc1,514
15,COc1ccc(-c2nonc2NC(=O)c2cccc(Cl)c2)cc1OC,1330
16,Cc1cc(NC(=O)c2ccc(-c3ccccc3)cc2)no1,775
17,COc1cccc(-c2nn(C)c3sc(C(=O)NCCN4CCN(c5ccccc5F)CC4)cc23)c1,1910
18,Oc1ccccc1CNCC12CC3CC(CC(C3)C1)C2,283
19,CNCCCNc1ccnc2cc(Cl)ccc12,437
20,COc1cc(-c2nc(-c3ccccc3)c(-c3ccccc3)[nH]2)cc(OC)c1O,1540
21,COc1ccccc1CNC(=O)CCn1c(=O)[nH]c2ccsc2c1=O,977

row,SMILES,IC50 [nM]
1,O=C(Nc1ccc(N2CCN(Cc3ccccc3)CC2)cc1)c1cccs1,742
2,Cc1ccc(-c2nc3ccccc3o2)cc1NCc1cc(Cc2ccccc2)ccc1O,1700
3,Cc1ccc(Nc2nc(N)c3ccccc3n2)cc1Cl,1100
4,O=C(Nc1ccc(N2CCCCC2)c(Cl)c1)c1ccc(Br)o1,559
5,Cc1cc(C)c2nc(N3CCC(C(=O)NCCCN4CCC(N5CCCCC5)CC4)CC3)sc2c1,1280
6,CC1CCN(Cc2ccc(NC(=O)c3cc4ccc5cccnc5c4[nH]3)cc2)CC1,242
7,COc1cc(SC)ccc1C(=O)N1CCCC(C)C1 (stereo not drawn),3950
8,CC(C)(C)c1ccc(C(=O)Nc2nc3ccccc3s2)cc1,4150
9,COc1cc(CNCCc2ccc(Cl)cc2)cc(OC)c1O,1870
10,Cc1cc(Nc2ccc(Cl)cc2)n2nc(C(F)(F)F)nc2n1,302
11,COc1cc2c(cc1OC)C1=NNC(=O)C1=NC(C)(C)C2,732
12,Oc1c2c(nc3cc(-c4ccccc4)nn13)CCCC2,1560
13,CCOC(=O)C1CCN(C(=O)CN2C(=O)c3ccccc3C2c2c[nH]c3ccccc23)CC1 (stereo not drawn),512
14,CN(C)c1ccc(N=Cc2ccc(N3CCOCC3)cc2)cc1,345
15,CCN(CC)S(=O)(=O)c1ccc(-c2csc(Nc3ccc(C)c(C)c3)n2)cc1,933
16,CCCn1c(=N)c(C(=O)NC2CCCCC2)cc2c(=O)n3cccc(C)c3nc21,1640
17,CCN1CCN(c2c(C(=O)c3ccccc3)cnc3cc(OC)c(OC)cc23)CC1,3340
18,CC(C)(C)c1ccc(C2CC3=Nc4ccccc4N(C(=O)c4ccccc4Cl)C(c4ccc(F)cc4)C3=C(O)C2)cc1 (stereo not drawn),1990
19,O=C(Nc1cccc(C2=NCCN2)c1)Nc1cccc(C2=NCCN2)c1 [IMIDOCARB],332
20,CN(C)c1ccc(C(O)(c2ccc(N(C)C)cc2)c2ccc(N(C)C)cc2)cc1 [METHYLROSANILINE],218
